Laboratory results from patent publication US4822606A, “Immunosuppressive synthetic peptides and analogs thereof based on retroviral envelope sequences” (Duke University, priority 1986, dated 1989).
Ends that are not written are not given here.

How the values were obtained:
[1] = system: murine CTLL-2 cells; assay: Murine cytotoxic T lymphocyte (CTLL-2) IL-2 dependent proliferation assay; assay type: cell-based; conditions: for average inhibition of CTLL-2 proliferation: coupled to BSA, CS-1 5 experiments, CS-3 4 experiments; for effect upon CTLL-2 cell proliferation: peptides coupled to BSA or control BSA, same conditions as the active peptide;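 on all read-outs here: CTLL-2 cells, 4 x 10^3 per well in 96-well plates with RPMI plus 6% FBS, proliferation read as cell-bound radioactivity counted by liquid scintillation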
[2] = system: lymphocytes from two non-related individuals; assay: Human two-way mixed leukocyte culture (MLC); assay type: cell-based; conditions: 4 experiments, 6-day culture, coupled to BSA
Description: Fifty μl of RPMI containing 1×10^5 lymphocytes from each of two non-related individuals was added to each well of a 96 well tissue culture plate. An additional 50 μl of RPMI was added and cultures were incubated at 37° C. in humidified 5% CO2 for 5 days. Fifty μl of RPMI containing either peptide or no addition was added for an additional 24 hr. During the final 4 hr of incubation each well was incubated with 25 μl of RPMI containing 0.5 μCi of ^3 H-thymidine and incorporated radionucleotide determined as above.

[3] = system: OKT3-stimulated human lymphocytes; assay: Human lymphocyte proliferative response to OKT3 antibody; assay type: cell-based; conditions: 5 experiments, 3 days, coupled to BSA
Description: One hundred μl of RPMI containing 2×10^5 lymphocytes was added to each well of a 96 well tissue culture plate. Fifty μl of RPMI containing either peptide or no addition was added for 2 hr at 37° C followed by the addition of 50 μl of RPMI containing nothing or Con A (40 μg/ml) or OKT3 antibody (1:1000 dilution). The cultures were incubated for 72 hr at 37° C. in 5% humidified CO2, pulsed with ^3 Hthymidine (0.,5 μCi/well, 4h.) and the incorporated radioactivity determined as described above. The concentration of OKT3 antibody used was previously determined to give 75-100% of a maximal response.

[4] = system: human lymphocytes; assay: Binding of [^125 I]-CKS-17-BSA to cultured human lymphocytes; conditions: >1000 fold excess of unlabeled BSA conjugate
Description: Human mononuclear cells were stimulated for 3 days with PHA, washed free of lectin, cultured for 10 days with 10% of a human IL-2 preparation (electronucleonics) washed and resuspended to 5×10^6 cells/ml in phosphate-buffered-saline, pH 7.2 (PBS) containing 0.1% BSA. […] Binding was terminated and unbounded [^125 I]-CKS-17-BSA removed by rapid (30 sec.) centrifugation of the cells through oil. The cell associated radioactivity was measured using a gamma radiation counter.

[5] = system: human monocytes; assay: Monocyte superoxide anion (O2^-) release; assay type: cell-based; conditions: WGA stimulated, peptide coupled to BSA, mean ± SE
Description: Monocytes were aliquoted into 12×75 mm polypropylene tubes (Falcon, Oxnard, CA) and incubated at 37° C. with test materials for twenty minutes. Cytochalasin E was then added to give a final concentration of 5 μg/ml. Ten minutes later 1.5 mg/ml cytochrome C was added followed immediately by wheat germ agglutinin (WGA) to a final concentration of 30 μg/ml (1). Supernatants were removed after 5 min. for determination of O2^- dismutase-inhibitable reduction of cytochrome C (2).

Sequence: AQNRRGLDLLFWEQGGL [CS-1]
- average inhibition of CTLL-2 proliferation ([1]; ca. 3.75 μM): 13.4%
- average inhibition of CTLL-2 proliferation ([1]; ca. 7.5 μM): 39.8%
- average inhibition of CTLL-2 proliferation ([1]; ca. 15 μM): 92.8%
- average inhibition of human two-way MLC ([2]; 3.75 μM): 51.8%
- average inhibition of human two-way MLC ([2]; 7.5 μM): 72.2%
- average inhibition of human two-way MLC ([2]; 15 μM): 81.8%
- average inhibition of OKT3-stimulated lymphocyte proliferation ([3]; ca. 3.75 μM): 26.8%
- average inhibition of OKT3-stimulated lymphocyte proliferation ([3]; ca. 7.5 μM): 42.8%
- average inhibition of OKT3-stimulated lymphocyte proliferation ([3]; ca. 15 μM): 57.6%
- inhibition of [^125 I]-CKS-17-BSA binding by excess unlabelled material [4]: binding could be inhibited

Sequence: PPFSLSPVPTL [SP-70]
- effect upon CTLL-2 cell proliferation [1]: little or no effect
- O2^- Release ([5]; dilution 1:20): 10.7 ± 0.5 nmoles/5 minues/1.2 × 10^6 mon
- O2^- Release ([5]; dilution 1:40): 11.6 ± 0.2 nmoles/5 minues/1.2 × 10^6 mon

Sequence: QYAAQNRRGLDLL [SP-74]
- effect upon CTLL-2 cell proliferation [1]: little or no effect
- O2^- Release ([5]; dilution 1:20): 10.7 ± 0.4 nmoles/5 minues/1.2 × 10^6 mon
- O2^- Release ([5]; dilution 1:40): 12.5 ± 0.5 nmoles/5 minues/1.2 × 10^6 mon
